≈ marks a conversion by molar mass, not a printed value.
What was measured:
[1] = system: Staphylococcus aureus X400; assay: MIC, standard agar-dilution assay; assay type: cell-based
[2] = system: Staphylococcus epidermidis EPI1; assay type: cell-based; conditions: agar dilution
[3] = system: Haemophilus influenzae 76; assay: MIC, standard agar-dilution assay; assay type: cell-based
[4] = system: Streptococcus pyogenes C203; assay: MIC, standard agar-dilution assay; assay type: cell-based
Escherichia coli TEM = assay: MIC, standard agar-dilution assay; assay type: cell-based
[5] = system: Streptococcus sp. group D 2041; assay: MIC, standard agar-dilution assay; assay type: cell-based
[6] = system: Klebsiella pneumoniae X68; assay: MIC, standard agar-dilution assay; assay type: cell-based
[7] = system: Haemophilus influenzae C.L.; assay: MIC, standard agar-dilution assay; assay type: cell-based
[8] = system: Staphylococcus aureus V41; assay: MIC, standard agar-dilution assay; assay type: cell-based
Escherichia coli N10 = assay: MIC, standard agar-dilution assay; assay type: cell-based
Escherichia coli EC14 = assay: MIC, standard agar-dilution assay; assay type: cell-based
[9] = system: Staphylococcus aureus NRRL B313; conditions: agar dilution
Streptococcus pneumoniae = Streptococcus pneumoniae infection in mice; two doses, administered subcutaneously
[10] = system: Klebsiella pneumoniae X26; assay: MIC, standard agar-dilution assay; assay type: cell-based
[11] = system: Klebsiella pneumoniae KAE; assay: MIC, standard agar-dilution assay; assay type: cell-based
[12] = system: Staphylococcus aureus S13E; assay type: cell-based; conditions: agar dilution
[13] = system: Streptococcus faecium ATCC 9790; assay: MIC, standard agar-dilution assay; assay type: cell-based
Streptococcus pyogenes = Streptococcus pyogenes infection in mice; two doses, administered subcutaneously
[14] = system: Streptococcus pneumoniae Park 1; assay type: cell-based; conditions: agar dilution
Staphylococcus aureus = Staphylococcus aureus infection in mice; two doses, administered subcutaneously
[15] = system: Staphylococcus epidermidis 222; assay: MIC, standard agar-dilution assay; assay type: cell-based

| SMILES | MIC [1] [µg/mL] | MIC [2] [µg/mL] | MIC [3] [µg/mL] | MIC [4] [µg/mL] | MIC (Escherichia coli TEM) [µg/mL] | MIC [5] [µg/mL] | MIC [6] [µg/mL] | MIC [7] [µg/mL] | MIC [8] [µg/mL] | MIC (Escherichia coli N10) [µg/mL] | MIC (Escherichia coli EC14) [µg/mL] | MIC [9] [µg/mL] | MIC [10] [µg/mL] | MIC [11] [µg/mL] | MIC [12] [µg/mL] | MIC [13] [µg/mL] | MIC [14] [µg/mL] | MIC [15] [µg/mL] | other results |
| --- | --- | --- | --- | --- | --- | --- | --- | --- | --- | --- | --- | --- | --- | --- | --- | --- | --- | --- | --- |
| CCCCCCCCCCCCNC1(C)CC(OC2C(Oc3c4cc5cc3Oc3ccc(cc3Cl)C(O)C3NC(=O)C(NC(=O)C5NC(=O)C(CC(N)=O)NC(=O)C(NC(=O)C(CC(C)C)NC)C(O)c5ccc(c(Cl)c5)O4)c4ccc(O)c(c4)-c4c(O)cc(O)cc4C(C(=O)O)NC3=O)OC(CO)C(O)C2O)OC(C)C1O (stereo not shown) [Compound 1, N^van --(n-dodecyl)vancomycin] | 0.25 (≈ 0.155 µM) | 0.5 (≈ 0.309 µM) | > 128 | 0.125 (≈ 0.0773 µM) | > 128 | 0.125 (≈ 0.0773 µM) | > 128 | > 128 | 0.25 (≈ 0.155 µM) | > 128 | > 128 | 0.25 (≈ 0.155 µM) | > 128 | > 128 | 0.25 (≈ 0.155 µM) | 0.25 (≈ 0.155 µM) | 0.25 (≈ 0.155 µM) | – | ED50 (Streptococcus pneumoniae): 0.42 mg/kg/2; ED50 (Streptococcus pyogenes): 0.31 mg/kg/2; ED50 (Staphylococcus aureus): > 5 mg/kg/2 |
| CCCCCCCCNC1(C)CC(OC2C(Oc3c4cc5cc3Oc3ccc(cc3Cl)C(O)C3NC(=O)C(NC(=O)C5NC(=O)C(CC(N)=O)NC(=O)C(NC(=O)C(CC(C)C)NC)C(O)c5ccc(c(Cl)c5)O4)c4ccc(O)c(c4)-c4c(O)cc(O)cc4C(C(=O)O)NC3=O)OC(CO)C(O)C2O)OC(C)C1O (stereo not shown) [Compound 7, N^van --(n-octyl)vancomycin] | 0.25 (≈ 0.16 µM) | 1 (≈ 0.64 µM) | 32 (≈ 20.5 µM) | 0.125 (≈ 0.0801 µM) | > 128 | 0.5 (≈ 0.32 µM) | > 128 | 32 (≈ 20.5 µM) | 0.25 (≈ 0.16 µM) | > 128 | > 128 | 0.25 (≈ 0.16 µM) | > 128 | > 128 | 0.25 (≈ 0.16 µM) | 0.25 (≈ 0.16 µM) | – | 0.5 (≈ 0.32 µM) | ED50 (Streptococcus pneumoniae): 0.44 mg/kg/2; ED50 (Streptococcus pyogenes): 0.98 mg/kg/2; ED50 (Staphylococcus aureus): 3.4 mg/kg/2 |
| CCCNC1(C)CC(OC2C(Oc3c4cc5cc3Oc3ccc(cc3Cl)C(O)C3NC(=O)C(NC(=O)C5NC(=O)C(CC(N)=O)NC(=O)C(NC(=O)C(CC(C)C)NC)C(O)c5ccc(c(Cl)c5)O4)c4ccc(O)c(c4)-c4c(O)cc(O)cc4C(C(=O)O)NC3=O)OC(CO)C(O)C2O)OC(C)C1O (stereo not shown) [Compound 20, N^van --(n-propyl)vancomycin] | 1 (≈ 0.671 µM) | 4 (≈ 2.68 µM) | 128 (≈ 85.8 µM) | 0.5 (≈ 0.335 µM) | > 128 | 1 (≈ 0.671 µM) | > 128 | 128 (≈ 85.8 µM) | 1 (≈ 0.671 µM) | > 128 | > 128 | 1 (≈ 0.671 µM) | > 128 | > 128 | 1 (≈ 0.671 µM) | 1 (≈ 0.671 µM) | 0.5 (≈ 0.335 µM) | 1 (≈ 0.671 µM) | – |
| CCCNC1(C)CC(OC2C(Oc3c4cc5cc3Oc3ccc(cc3Cl)C(O)C(NC(=O)C(CC(C)C)N(C)CCC)C(=O)NC(CC(N)=O)C(=O)NC5C(=O)NC3C(=O)NC(C(=O)NC(C(=O)O)c5cc(O)cc(O)c5-c5cc3ccc5O)C(O)c3ccc(c(Cl)c3)O4)OC(CO)C(O)C2O)OC(C)C1O (stereo not shown) [Compound 22, N^van, N^leu --di(n-propyl)vancomycin] | 2 (≈ 1.3 µM) | 4 (≈ 2.61 µM) | 128 (≈ 83.5 µM) | 2 (≈ 1.3 µM) | > 128 | 8 (≈ 5.22 µM) | > 128 | > 128 | 2 (≈ 1.3 µM) | > 128 | > 128 | 2 (≈ 1.3 µM) | > 128 | > 128 | 2 (≈ 1.3 µM) | 2 (≈ 1.3 µM) | 1 (≈ 0.652 µM) | 4 (≈ 2.61 µM) | – |
| CCNC1(C)CC(OC2C(Oc3c4cc5cc3Oc3ccc(cc3Cl)C(O)C(NC(=O)C(CC(C)C)N(C)CC)C(=O)NC(CC(N)=O)C(=O)NC5C(=O)NC3C(=O)NC(C(=O)NC(C(=O)O)c5cc(O)cc(O)c5-c5cc3ccc5O)C(O)c3ccc(c(Cl)c3)O4)OC(CO)C(O)C2O)OC(C)C1O (stereo not shown) [Compound 24, N^van, N^leu --diethylvancomycin] | 2 (≈ 1.33 µM) | 2 (≈ 1.33 µM) | 128 (≈ 85 µM) | 1 (≈ 0.664 µM) | > 128 | 4 (≈ 2.66 µM) | > 128 | < 128 | 1 (≈ 0.664 µM) | > 128 | > 128 | 1 (≈ 0.664 µM) | > 128 | > 128 | 1 (≈ 0.664 µM) | 2 (≈ 1.33 µM) | 1 (≈ 0.664 µM) | 2 (≈ 1.33 µM) | – |
| CCCCCCCCCCNC1(C)CC(OC2C(Oc3c4cc5cc3Oc3ccc(cc3Cl)C(O)C3NC(=O)C(NC(=O)C5NC(=O)C(CC(N)=O)NC(=O)C(NC(=O)C(N)CC(C)C)C(O)c5ccc(c(Cl)c5)O4)c4ccc(O)c(c4)-c4c(O)cc(O)cc4C(C(=O)O)NC3=O)OC(CO)C(O)C2O)OC(C)C1O (stereo not shown) [Compound 26, N^van --(n-decyl)-A51568A] | 0.25 (≈ 0.159 µM) | 0.5 (≈ 0.317 µM) | 128 (≈ 81.2 µM) | 0.25 (≈ 0.159 µM) | > 128 | 0.5 (≈ 0.317 µM) | > 128 | 128 (≈ 81.2 µM) | 0.25 (≈ 0.159 µM) | > 128 | > 128 | 0.25 (≈ 0.159 µM) | > 128 | > 128 | 0.25 (≈ 0.159 µM) | 0.5 (≈ 0.317 µM) | 0.25 (≈ 0.159 µM) | 0.25 (≈ 0.159 µM) | – |
| CCCCCCCCCCNC1(C)CC(OC2C(Oc3c4cc5cc3Oc3ccc(cc3Cl)C(O)C(NC(=O)C(CC(C)C)[N+](C)(C)C)C(=O)NC(CC(N)=O)C(=O)NC5C(=O)NC3C(=O)NC(C(=O)NC(C(=O)[O-])c5cc(O)cc(O)c5-c5cc3ccc5O)C(O)c3ccc(c(Cl)c3)O4)OC(CO)C(O)C2O)OC(C)C1O (stereo not shown) [Compound 124, N^van --(n-decyl)-M43A] | 0.5 (≈ 0.309 µM) | 1 (≈ 0.618 µM) | > 64 | 0.25 (≈ 0.155 µM) | > 64 | 0.5 (≈ 0.309 µM) | > 64 | > 64 | 0.5 (≈ 0.309 µM) | > 64 | 64 (≈ 39.6 µM) | 0.5 (≈ 0.309 µM) | > 64 | > 64 | 0.5 (≈ 0.309 µM) | 0.5 (≈ 0.309 µM) | 0.5 (≈ 0.309 µM) | 0.5 (≈ 0.309 µM) | – |
